Source: US20180237449A1, “FUMAGILLOL SPIROCYCLIC COMPOUNDS AND FUSED BICYCLIC COMPOUNDS AND METHODS OF MAKING AND USING SAME” (Zafgen, Inc., priority 2015, published 2018)
pEC50: −log10 of the molar value. Counter-ions that a name gives are not always drawn.

Columns and labels:
[1] = system: human fibrosarcoma cell line HT-1080; assay: HT-1080 cell assay (CellTiter-Glo, 72 hours); format: cell-based; details: 72 hours incubation
Protocol: The human fibrosarcoma cell line HT-1080 were grown to almost complete confluence in T75 tissue culture flasks in preparation for the experiment. The cells were trypsinised and re-suspended in complete medium using DMEM plus 9% FBS including penicillin/streptomycin supplements. 500 cells in a total volume of 25 μl were seeded into black walled 384 well plates and returned to a CO2 incubator over-night. Compounds and standards were prepared at 333.3× actual test concentration in neat DMSO. 10 point dose response curves of test compounds were generated by 1:3 serial dilutions, 2 μl of DMSO stock was transferred to 109 μl complete medium. This was further diluted 1:6 in complete medium, with 5 μl of the resulting solution added to the incubated 384 well plate. […] For experimental blanks at the start of the experiment, CellTiter-Glo was added to a satellite plate of cells (identical to the experimental plate), when adding compounds on Day 1. The average of these wells is used as the blanks in the calculation template. Following 72 hours incubation with compounds and standard the plate was removed from the incubator and allowed to equilibrate at room temperature for at least 30 minutes. CellTiter-Glo was thawed and subsequently 30 μl added to columns 2-23. The plate was covered with a clear Perkin Elmer Topseal and placed on a plate shaker for 10-20 mins to aid homogenous mixing. Luminescence per well was determined using an EnVision 2104 Multilabel Reader (PerkinElmer) or other suitable reader. The compound blank value recorded on Day 1 is subtracted from all other data. Data is expressed as % inhibition of mean DMSO control response and the EC50 is calculated as 50% maximum response. The EC50 values are determined from a sigmoidal 4 parameter curve fit using XLfit in conjunction with Activity Base (IDBS; Guildford, Surrey, UK). The bottom of the curve is fixed to 0% inhibition.

[2] = system: pregnant Sprague Dawley rats; assay: Rat embryofetal development study; format: in vivo; details: 6 mpk sc once every three days, Gestation Days 6-18
Protocol: The objective of this study design was to evaluate the potential effects of disclosed compounds on embryo/fetal development when given subcutaneously to pregnant rats once every three days during the critical period of organogenesis (Gestation Days 6-18). Female, Sprague Dawley rats, approximately 10 weeks of age, time bred, were ordered from a certified vendor and housed individually housed in stainless steel cages suspended over flush pans, on a 12-hour light-dark cycle (0700-1900) at 20-26° C. and 30-70% humidity. Rats were fed a standard rodent chow and provided water ad libitum. Rats were received and housed in the facility for a period of approximately 1 to 2 days.
Compounds were formulated using 100% DMSO mixed in Sterile Water for Injection, resulting in 2% DMSO solution in water. If necessary, due to limited solubility of a test article, a higher percentage of DMSO solution in water was used. Groups of 8 mated and presumed pregnant female rats were given subcutaneous doses of vehicle or test article, once every three days, beginning on Gestation Day 6 and ending on Gestation Day 18 (Days 6, 9, 12, 15, and 18), maintained two more days, and then euthanized and necropsied on Gestation Day 20. Body weights was recorded for all animals on Gestation Days 5 (purpose of randomization), 6, 9, 12, 15, 18, and 20 (scheduled euthanasia). Food consumption by weight was recorded on Gestation Days 6, 9, 12, 15, 18, and 20 (scheduled termination).
At necropsy, the dams were examined visually for external abnormalities including palpable masses. The abdominal, thoracic, and cranial cavities and their contents were examined for abnormalities and findings will be recorded. The reproductive tract were examined to record the number of ovarian corpora lutea, the number and location of uterine implantation sites noting the position of the cervix, and the number of early resorptions, late resorptions, live fetuses, and dead fetuses. For dead fetuses and late resorptions, crown-to-rump length and weight were recorded, if possible, and the fetus was discarded. For viable fetuses, weight, sex, and grossly visible external abnormalities were recorded.

[3] = system: Diet Induced Obese (DIO) C57BL/6 mice; assay: 10 day DIO mouse model, weight loss vs. vehicle; format: in vivo; details: 0.3 mpk sc once a day for 10 days
Excerpt: The objective of this study design was to investigate the efficacy of disclosed compounds in a 10 day DIO mouse model. Effects on body weight, food intake, hematology and blood chemistry were the primary readouts of this study design. Male, Diet Induced Obese (DIO) C57BL/6 mice, 19-21 weeks of age (13-15 weeks on high fat diet) were ordered from a certified vendor and upon receipt were housed on irradiated corncob bedding in micro-isolator cages on a 12-hour light-dark cycle (0700-1900) at 68-74° F. and 30-70% humidity. Mice were fed Research Diets D12492 (60% Kcal fat, 20% Kcal carbohydrate and 20% protein) and provided water ad libitum. DIO mice were received and housed in the facility for approximately two weeks prior to the start of test article administration. On Day −4 or −3, mice were randomized into study groups based on body weight and body weights were continued to be recorded daily for the duration of the study. Daily food intake was assessed starting on Study Day −2 by weighing of the food with hopper together to avoid loss of food in transfer.
Compounds were formulated into a 100% DMSO stock (at 9 mg/mL) prior to the start, and further diluted into the target working concentration using the vehicle of 10% DMSO in water. Prior to test article administration, starting on Day −3 a dosing acclimation occurred with all animals receiving a subcutaneous injection of vehicle (10% DMSO) only for 3 days. Starting on Day 1, test compounds or vehicle were administered based on individual body weight, subcutaneously, once a day for 10 days. All mice were sacrificed on Day 11, 24 hours following the final dosing on Day 10. After sacrifice, whole blood was collected and analyzed for hematology and blood chemistry parameters.
Compounds were tested for weight loss vs. vehicle at 0.3 and 1.0 mpk sc (mg per kg animal weight delivered subcutaneously), and the results are shown in Table 2 below.

DIO Sprague Dawley rats = assay: 11 day rat DIO model, weight loss vs. vehicle; format: in vivo; details: 0.3 mpk sc once a day for 11 days
Excerpt: The objective of this study design is to investigate the efficacy of disclosed compounds in an 11 day rat DIO model used to screen compounds for pharmacologic efficacy on endpoints related to obesity and metabolism. Effects on body weight, food intake, hematology and blood chemistries were the primary readouts of this study design. Male Sprague Dawley rats, approximately 8 weeks of age, were ordered from a certified vendor and housed on irradiated corncob bedding in micro-isolator cages, on a 12-hour light-dark cycle (0700-1900) at 68-74° F. and 30-70% humidity. Rats were fed Research Diets D12451 (45% High Fat) and provided water ad libitum. Rats were received and housed in the facility for at least two or three weeks prior to start of test article administration. On Day −4 or −3, rats were randomized into study groups based on body weight and body weights were continued to be recorded daily for the duration of the study. Daily food intake was assessed starting on Study Day −2 by weighing the hopper including the food to avoid loss of food in transfer.
Compounds were formulated into a 100% DMSO stock (at 9 mg/mL) prior to the start, and further diluted into the target working concentration using the vehicle of 10% DMSO in water. […] After sacrifice, whole blood was collected and analyzed for hematology and blood chemistry parameters. […]

| SMILES | pEC50 [1] | Rat Embryofetal @6 mpk [2] | weight loss vs. vehicle, Mouse @ 0.3 mpk sc (%) [3] [%] | weight loss vs. vehicle, Rat @ 0.3 mpk sc (%) (DIO Sprague Dawley rats) |
| --- | --- | --- | --- | --- |
| CO[C@@H]1[C@H](OC(=O)N2CCC3(CCOCC3)C2)CC[C@]2(CO2)[C@H]1[C@@]1(C)O[C@@H]1CC=C(C)C [Example 27, (3R,4S,5S,6R)-5-methoxy-4-((2R,3R)-2-methyl-3-(3-methylbut-2-enyl)oxiran-2-yl)-1-oxaspiro[2.5]octan-6-yl 8-oxa-2-azaspiro[4.5]decane-2-carboxylate] | > 9.30 | Positive |  |  |
| CO[C@@H]1[C@H](OC(=O)N2CC3(C2)CS(=O)(=O)C3)CC[C@]2(CO2)[C@H]1[C@@]1(C)O[C@@H]1CC=C(C)C [Example 23, (3R,4S,5S,6R)-5-methoxy-4-((2R,3R)-2-methyl-3-(3-methylbut-2-enyl)oxiran-2-yl)-1-oxaspiro[2.5]octan-6-yl 2-thia-6-azaspiro[3.3]heptane 2,2-dioxide-6-carboxylate] |  |  | 2 |  |
| CO[C@@H]1[C@H](OC(=O)N2CCC3(CCN(C)CC3)CC2)CC[C@]2(CO2)[C@H]1[C@@]1(C)O[C@@H]1CC=C(C)C [Example 28, (3R,4S,5S,6R)-5-methoxy-4-((2R,3R)-2-methyl-3-(3-methylbut-2-enyl)oxiran-2-yl)-1-oxaspiro[2.5]octan-6-yl 9-methyl-3,9-diazaspiro[5.5]undecane-3-carboxylate] |  |  | 8 |  |
| CO[C@@H]1[C@H](OC(=O)N2CC3C(C2)C3(F)F)CC[C@]2(CO2)[C@H]1[C@@]1(C)O[C@@H]1CC=C(C)C (stereo partly drawn) [Example 22, (3R,4S,5S,6R)-5-methoxy-4-((2R,3R)-2-methyl-3-(3-methylbut-2-enyl)oxiran-2-yl)-1-oxaspiro[2.5]octan-6-yl 6,6-difluoro-3-azabicyclo[3.1.0]hexane-3-carboxylate] | > 9.30 | Negative |  |  |
| CO[C@@H]1[C@H](OC(=O)N2CCC3(CC2)COC3)CC[C@]2(CO2)[C@H]1[C@@]1(C)O[C@@H]1CC=C(C)C [Example 5, (3R,4S,5S,6R)-5-methoxy-4-((2R,3R)-2-methyl-3-(3-methylbut-2-enyl)oxiran-2-yl)-1-oxaspiro[2.5]octan-6-yl 2-oxa-7-azaspiro[3.5]nonane-7-carboxylate] |  |  | 16.7 | 6.6 |
| CO[C@@H]1[C@H](OC(=O)N2CC3(CNC(=O)C3)C2)CC[C@]2(CO2)[C@H]1[C@@]1(C)O[C@@H]1CC=C(C)C [Example 25, (3R,4S,5S,6R)-5-methoxy-4-((2R,3R)-2-methyl-3-(3-methylbut-2-enyl)oxiran-2-yl)-1-oxaspiro[2.5]octan-6-yl 7-oxo-2,6-diazaspiro[3.4]octane-2-carboxylate] |  |  | 2 |  |
| CO[C@@H]1[C@H](OC(=O)N2CC3(CCN(CC(F)F)CC3)C2)CC[C@]2(CO2)[C@H]1[C@@]1(C)O[C@@H]1CC=C(C)C [Example 9, (3R,4S,5S,6R)-5-methoxy-4-((2R,3R)-2-methyl-3-(3-methylbut-2-enyl)oxiran-2-yl)-1-oxaspiro[2.5]octan-6-yl 7-(2,2-difluoroethyl)-2,7-diazaspiro[3.5]nonane-2-carboxylate formate] | > 9.30 | Positive |  |  |
| CO[C@@H]1[C@H](OC(=O)NC2CC3(CCN(C)C3)C2)CC[C@]2(CO2)[C@H]1[C@@]1(C)O[C@@H]1CC=C(C)C (stereo partly drawn) [Example 11, (3R,4S,5S,6R)-5-methoxy-4-((2R,3R)-2-methyl-3-(3-methylbut-2-enyl)oxiran-2-yl)-1-oxaspiro[2.5]octan-6-yl 6-methyl-6-azaspiro[3.4]octan-2-ylcarbamate formate] |  |  | 6 |  |
| CO[C@@H]1[C@H](OC(=O)N2CC3(COC3)C2)CC[C@]2(CO2)[C@H]1[C@@]1(C)O[C@@H]1CC=C(C)C [Example 2, (3R,4S,5S,6R)-5-methoxy-4-((2R,3R)-2-methyl-3-(3-methylbut-2-enyl)oxiran-2-yl)-1-oxaspiro[2.5]octan-6-yl 2-oxa-6-azaspiro[3.3]heptane-6-carboxylate] | > 9.30 | Positive |  |  |
| CO[C@@H]1[C@H](OC(=O)/C=C/c2ccc(OCCN(C)C)cc2)CC[C@]2(CO2)[C@H]1[C@@]1(C)O[C@@H]1CC=C(C)C [compound A, [(3R,6R,7S,8S)-7-methoxy-8-[(2R,3R)-2-methyl-3-(3-methylbut-2-enyl)oxiran-2-yl]-2-oxaspiro[2.5]octan-6-yl] (E)-3-[4-[2-(dimethylamino)ethoxy]phenyl]prop-2-enoate, reference compound] |  | Positive |  |  |
| CO[C@@H]1[C@H](OC(=O)N2C[C@@H]3[C@H](C2)[C@H]3C(=O)NCCN2CCOCC2)CC[C@]2(CO2)[C@H]1[C@@]1(C)O[C@@H]1CC=C(C)C [Example 37, (1R,5S,6R)-(3R,4S,5S,6R)-5-methoxy-4-((2R,3R)-2-methyl-3-(3-methylbut-2-en-1-yl)oxiran-2-yl)-1-oxaspiro[2.5]octan-6-yl 6-((2-morpholinoethyl)carbamoyl)-3-azabicyclo[3.1.0]hexane-3-carboxylate] |  |  | 4.3 |  |
